{
  "source": "patent US12660812B2",
  "about": "“Cryoprotecting agent, cryoprotecting and cryopreserved compositions, uses thereof, and methods of cryopreservation” (PHARMACOSMOS HOLDING A/S, priority 2012, dated 2026)",
  "test_system": "adipose-derived stromal/stem cells (ASC's)",
  "assay": "Viability of adipose-derived stromal/stem cells after cryopreservation, flow cytometry with 7-AAD",
  "type": "cell-based",
  "settings": "10% DMSO",
  "source_text": "ASC's were harvested from adipose tissue obtained by cosmetic liposuction of the abdomen or the inner thighs using the Vibrasat device (Möller Medical GmbH & Co. KG, Fulda, Germany). The ASC's from the stromal vascular fraction were expanded ex vivo in culture medium consisting of Dulbecco's modified Eagle's medium, 1% penicillin-streptomycin, 1% GlutaMAX, and 10% pooled human platelet lysate. Cells were frozen in cryoprotective medium containing 10% DMSO or different concentrations of isomaltooligosaccharide 1 (isom) or hydrogenated isomaltooligosaccharide 1 (h-isom). Samples were frozen using a controlled rate freezer (Kryo 560-16, Planer; start temp. 4° C., −1° C./min drop to 0° C., −2° C./min drop to −45° C. and −5° C./min drop to −100° C.) and moved to −150° C. Samples were thawed in a 37° C. water bath. Flow cytometry was applied for phenotype characterization (positive for CD73, CD90, CD105 and negative for CD14, CD20, CD45 and CD34) and to estimate the viability of ASC's. The fluorescent DNA binding compound 7-Aminoactinomycin D (7-AAD) was used as a live/dead marker. Cells able to exclude 7AAD were assumed to be viable. The results are shown in FIG. 11: Isomaltooligosaccharide 1 (light grey bars), hydrogenated isomaltooligosaccharide 1 (dark grey bars) and DMSO (black bars). Data shown here are from a single experiment measured in doublets. […]",
  "data": [
    {"compound": "C[S+](C)[O-]", "note": "[DMSO, dimethyl sulfoxide]", "values": [
      {"measurement": "Viability of ASCs, result against expectation", "result": "lower than expected"}
    ]}
  ]
}
